By inhibition is commonly meant how much of the control response was suppressed.

SMILES strings stand for the structures.

Assay type in all cases: in vivo
Test [1] relates to Seedling johnsongrass. The experiment in a line: Pre-emergence herbicide test. Particulars: Sorghum halepense, read-out: % plant inhibition (Sejg); for inhibition at 11210 g/ha: 11.21 kg/ha; for inhibition at 1120 g/ha: 1.12 kg/ha. In outline:
(§1)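 Readout: % inhibition per species, observed ~10-14 d after seeding and treatment. Treatment: known amount of active in acetone or water onto seed bed, covered with untreated soil; greenhouse, watered from below.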

Test [2] relates to Velvetleaf. The test can be described thus: Pre-emergence herbicide test. The settings on record: Abutilon theophrasti, read-out: % plant inhibition (Vele); for inhibition at 11210 g/ha: 11.21 kg/ha; for inhibition at 1120 g/ha: 1.12 kg/ha. The gist of the method: as §1
For test [3], the system named is Wild buckwheat. The experiment in a line: Pre-emergence herbicide test. Particulars: Fallopia convolvulus, read-out: % plant inhibition (Wibw); for inhibition at 11210 g/ha: 11.21 kg/ha; for inhibition at 1120 g/ha: 1.12 kg/ha. The gist of the method:
as §1

Test [4] deals with Yellow nutsedge. The experiment in a line: Pre-emergence herbicide test. The settings on record: Cyperus, read-out: % plant inhibition (Yens); for inhibition at 11210 g/ha: 11.21 kg/ha; for inhibition at 1120 g/ha: 1.12 kg/ha. In outline: as §1
Test [5] has as its system Downy Brome. The experiment in a line: Pre-emergence herbicide test. Particulars: Bromus tectorum, read-out: % plant inhibition (Dobr); for inhibition at 11210 g/ha: 11.21 kg/ha; for inhibition at 1120 g/ha: 1.12 kg/ha. In outline:
as §1

The subject of test [6] is Morningglory. The test can be described thus: Pre-emergence herbicide test. The settings on record: Ipomoea, read-out: % plant inhibition (Mogl); for inhibition at 11210 g/ha: 11.21 kg/ha; for inhibition at 1120 g/ha: 1.12 kg/ha. In outline:
as §1

For test [7], the system named is Cocklebur. The experiment in a line: Pre-emergence herbicide test. The settings on record: Xanthium strumarium, read-out: % plant inhibition (Cobu); for inhibition at 11210 g/ha: 11.21 kg/ha; for inhibition at 1120 g/ha: 1.12 kg/ha. In outline: as §1
The test system of test [8] is Barnyardgrass. The experiment in a line: Pre-emergence herbicide test. Particulars: Echinochloa crus-galli, read-out: % plant inhibition (Bygr); for inhibition at 11210 g/ha: 11.21 kg/ha; for inhibition at 1120 g/ha: 1.12 kg/ha. In outline:
as §1

Test [9] relates to Annual bluegrass. The test can be described thus: Pre-emergence herbicide test. Particulars: read-out: % plant inhibition (Anbg); for inhibition at 11210 g/ha: 11.21 kg/ha; for inhibition at 1120 g/ha: 1.12 kg/ha. In outline: as §1
The subject of test [10] is Indian Mustard. The test can be described thus: Pre-emergence herbicide test. Particulars: Brassica juncea, read-out: % plant inhibition (Inmu); for inhibition at 11210 g/ha: 11.21 kg/ha; for inhibition at 1120 g/ha: 1.12 kg/ha. In outline: as §1
Test [11] relates to Seedling johnsongrass. The experiment in a line: Post-emergence herbicide test. Particulars: Sorghum halepense, read-out: % plant inhibition (Sejg); for inhibition at 11210 g/ha: 11.21 kg/ha; for inhibition at 1120 g/ha: 1.12 kg/ha. In outline: (§2)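 Rating of injury as % inhibition against control took place at ~11 days (10–14), and sometimes at ~25 days (24–28), following atomizer application (170.3 kPa, 1870 L/Ha, ~0.4% v/v emulsifier) to greenhouse plants aged 2–3 weeks.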

For test [12], the system named is Velvetleaf. The test can be described thus: Post-emergence herbicide test. Particulars: Abutilon theophrasti, read-out: % plant inhibition (Vele); for inhibition at 11210 g/ha: 11.21 kg/ha; for inhibition at 1120 g/ha: 1.12 kg/ha. In outline:
as §2

For test [13], the system named is Wild buckwheat. The test can be described thus: Post-emergence herbicide test. The settings on record: Fallopia convolvulus, read-out: % plant inhibition (Wibw); for inhibition at 11210 g/ha: 11.21 kg/ha; for inhibition at 1120 g/ha: 1.12 kg/ha. In outline: as §2
Test [14] has as its system Yellow nutsedge. The test can be described thus: Post-emergence herbicide test. The settings on record: Cyperus, read-out: % plant inhibition (Yens); for inhibition at 11210 g/ha: 11.21 kg/ha; for inhibition at 1120 g/ha: 1.12 kg/ha. The gist of the method: as §2
Test [15] deals with Downy Brome. The experiment in a line: Post-emergence herbicide test. The settings on record: Bromus tectorum, read-out: % plant inhibition (Dobr); for inhibition at 11210 g/ha: 11.21 kg/ha; for inhibition at 1120 g/ha: 1.12 kg/ha. The gist of the method:
as §2

The subject of test [16] is Morningglory. The experiment in a line: Post-emergence herbicide test. The settings on record: Ipomoea, read-out: % plant inhibition (Mogl); for inhibition at 11210 g/ha: 11.21 kg/ha; for inhibition at 1120 g/ha: 1.12 kg/ha. The gist of the method:
as §2

Test [17] concerns Cocklebur. The test can be described thus: Post-emergence herbicide test. The settings on record: Xanthium strumarium, read-out: % plant inhibition (Cobu); for inhibition at 11210 g/ha: 11.21 kg/ha; for inhibition at 1120 g/ha: 1.12 kg/ha. The gist of the method: as §2
Test [18] deals with Barnyardgrass. The experiment in a line: Post-emergence herbicide test. The settings on record: Echinochloa crus-galli, read-out: % plant inhibition (Bygr); for inhibition at 11210 g/ha: 11.21 kg/ha; for inhibition at 1120 g/ha: 1.12 kg/ha. In outline:
as §2

Test [19] deals with Annual bluegrass. The test can be described thus: Post-emergence herbicide test. The settings on record: read-out: % plant inhibition (Anbg); for inhibition at 11210 g/ha: 11.21 kg/ha; for inhibition at 1120 g/ha: 1.12 kg/ha. The gist of the method: as §2
Test [20] has as its system Indian Mustard. The experiment in a line: Post-emergence herbicide test. The settings on record: Brassica juncea, read-out: % plant inhibition (Inmu); for inhibition at 11210 g/ha: 11.21 kg/ha; for inhibition at 1120 g/ha: 1.12 kg/ha. In outline: as §2

As for `Cn1nc(-c2cc(Oc3ccc(C(F)(F)F)cc3Cl)c(Cl)cc2F)c(Cl)c1C(F)(F)F` [Compound 203], the inhibition at 11210 g/ha in test [1] stood at 20%; in test [2] it was 0%; in [3] it was 0%; in [4] it was 0%; in test [5], 10%; in [6], 10%. The inhibition at 11210 g/ha in [7] came to 20%; in test [8] it was 0%; in [9], 0%; in test [10] it was 0%; in test [11], 60%; in [12], 100%. In addition, the inhibition at 11210 g/ha in test [13] came out at 90%; in [14] it was 0%; in [15] it was 30%; in test [16] it was 60%; in test [17] it was 60%; in [18], 50%. In addition, the values for the inhibition at 11210 g/ha in test [19] and in [20] were 20% and 60%, respectively.
`Cn1nc(-c2cc(Oc3ccc(C(F)(F)F)cc3)c(Cl)cc2F)c(Cl)c1C(F)(F)F` [Compound 205]: the inhibition at 11210 g/ha was found to be 20% in test [1]; 10% in [2]; 10% in test [3]; 0% in test [4]; 0% in [5]; 0% in [6]. Also, the inhibition at 11210 g/ha in [7] was 0%; in [8], 0%; in [9] it was 0%; in test [10], 30%; in [11], 70%; in test [12], 100%. Further, the inhibition at 11210 g/ha in test [13] is 90%; in test [14], 0%; in test [15], 50%; in [16], 80%; in test [17], 60%; in test [18], 10%. Further, the inhibition at 11210 g/ha in [19] was 40%; in [20] it was 60%.
On to `CCOC(=O)C(C)Oc1cc(-c2nn(C)c(C(F)(F)F)c2Cl)c(F)cc1Cl` (centres unmarked) [Compound 229, 2-(2-Chloro-5-(4-chloro-1-methyl-5-(trifluoromethyl)-1H-pyrazol-3-yl)-4-fluorophenoxy)propanoic acid, ethyl ester], for which the inhibition at 1120 g/ha in test [1] came to 100%; in test [2], 100%; in test [3], 100%; in test [4], 60%; in test [5], 100%; in test [6], 100%. Further, the inhibition at 1120 g/ha is 90% in [7]; 90% in test [8]; 100% in test [9]; 100% in test [10]; 100% in [11]; 100% in test [12]. The inhibition at 1120 g/ha in test [13] amounted to 100%; in test [14], 40%; in [15], 90%; in test [16] it was 100%; in test [17] it was 100%; in test [18], 100%. For the same compound, the inhibition at 1120 g/ha came out at 70% in test [19] and 100% in test [20].
Regarding `Cn1nc(-c2cc(OCc3ccccn3)c(Cl)cc2F)c(Cl)c1C(F)(F)F` [Compound 251], the inhibition at 1120 g/ha was 70% in [1]; 60% in test [2]; 90% in test [3]; 0% in test [4]; 80% in test [5]; 40% in test [6]. For the same compound, the inhibition at 1120 g/ha in [7] was found to be 30%; in test [8] it was 0%; in test [9] it was 50%; in [10], 20%; in test [11], 100%; in test [12] it was 100%. The inhibition at 1120 g/ha in test [13] came out at 90%; in test [14], 10%; in [15] it was 100%; in test [16], 100%; in test [17], 90%; in [18], 90%. Moreover, the inhibition at 1120 g/ha in [19] is 80%; in test [20] it was 70%.
For `Cn1nc(-c2cc(OCc3ccc(Cl)s3)c(Cl)cc2F)c(Cl)c1C(F)(F)F` [Compound 252], the inhibition at 1120 g/ha in test [1] was 60%; in [2], 20%; in [3], 10%; in [4], 0%; in [5], 60%; in test [6] it was 40%. Also, the inhibition at 1120 g/ha is 30% in test [7]; 20% in test [8]; 30% in test [9]; 10% in test [10]; 100% in [11]; 100% in [12]. The inhibition at 1120 g/ha in test [13] was found to be 100%; in test [14], 20%; in test [15] it was 100%; in [16], 100%; in [17], 100%; in test [18] it was 90%. The figures for the inhibition at 1120 g/ha in [19] and in [20] were 90% and 100%, respectively.
For `COCCOc1cc(-c2nn(C)c(C(F)(F)F)c2Cl)c(F)cc1Cl` [Compound 270, 4-Chloro-3-(4-chloro-2-fluoro-5-(methoxyethoxy)phenyl)-1-methyl-5-(trifluoromethyl)-1H-pyrazole], the inhibition at 1120 g/ha in test [1] was found to be 70%; in test [2], 100%; in test [3] it was 100%; in [4] it was 30%; in test [5] it was 100%; in [6] it was 100%. Moreover, the inhibition at 1120 g/ha in test [7] came to 60%; in test [8], 90%; in [9], 70%; in test [10] it was 100%; in test [11], 90%; in [12], 100%. The inhibition at 1120 g/ha is 100% in [13]; 60% in [14]; 100% in [15]; 100% in [16]; 90% in [17]; 100% in test [18]. In addition, the inhibition at 1120 g/ha in test [19] and in test [20] was 90% in each case.
In the case of `CC(C)OC(=O)COc1cc(-c2nn(C)c(C(F)(F)Cl)c2Cl)c(F)cc1Cl` [Compound 285], the inhibition at 1120 g/ha in test [1] is 0%; in test [2] it was 100%; in test [3], 80%; in test [4], 0%; in test [5], 0%; in test [6], 100%. The inhibition at 1120 g/ha worked out at 80% in test [7]; 50% in [8]; 0% in test [9]; 10% in test [10]; 50% in [11]; 100% in test [12]. Further, the inhibition at 1120 g/ha in [13] turned out to be 100%; in [14], 40%; in test [15], 40%; in test [16], 100%; in test [17], 100%; in test [18] it was 70%. The inhibition at 1120 g/ha was 30% in test [19] and 100% in test [20].
